Results on 29 compounds are retold here after US7825253B2, “2-aminoquinoline derivatives” (Hoffmann-La Roche Inc., priority 2006, dated 2010).

Each structure is given as a SMILES string.

The target of this assay is T1, recombinant human 5-HT5A receptor (Homo sapiens, UniProt P47898).
T1 construct: expressed in transfected cells; host or cells: Human Embryonic Kidney-EBNA (HEK-EBNA) cells, transient cDNA expression; membranes
T1 sequence (P47898 whole entry): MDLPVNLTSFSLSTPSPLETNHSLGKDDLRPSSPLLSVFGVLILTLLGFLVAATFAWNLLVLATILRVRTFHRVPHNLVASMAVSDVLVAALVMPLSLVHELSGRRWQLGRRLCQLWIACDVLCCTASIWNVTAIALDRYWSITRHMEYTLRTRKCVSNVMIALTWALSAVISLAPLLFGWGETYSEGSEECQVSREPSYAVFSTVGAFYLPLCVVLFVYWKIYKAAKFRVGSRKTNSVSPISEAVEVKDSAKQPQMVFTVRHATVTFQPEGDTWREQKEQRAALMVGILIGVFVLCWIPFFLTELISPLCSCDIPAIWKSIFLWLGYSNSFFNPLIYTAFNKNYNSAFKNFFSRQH
In words: [3H]LSD radioligand binding assay. To be noted: [3H]LSD approx. 1 nM; membranes from HEK-EBNA cells transiently expressing 5-HT5A; Ki from IC50 by Cheng-Prussoff. As for the experimental part: A [^3H]LSD radioligand binding assay was used to determine the affinity of the compounds for the recombinant human 5-HT5A receptor, in membranes from transiently (cDNA) expressed 5-HT5A receptors in Human Embryonic Kidney-EBNA (HEK-EBNA) cells. Assay buffer consisted of Tris (50 mM) buffer containing 1 mM EGTA, 10 mM MgCl2 (pH 7.4) and 10 μM pargyline. The binding assay was carried out in 96-well-plates in the presence of [^3H]LSD (approximately 1 nM), approximately 2 μg/well of membrane protein, and 0.5 mg of Ysi-poly-l-lysine SPA beads in a final volume of 200 μl of buffer. Non-specific binding was defined using methiothepin 2 μM. Compounds were tested at 10 concentrations. All assays were conducted in duplicate and repeated at least two times. Assay plates were incubated for 120 min at room temperature before centrifugation. Bound ligand was determined using a Packard Topcount scintillation counter. IC50 values were calculated using a non-linear curve fitting program and Ki values calculated using the Cheng-Prussoff equation.
For the compound `Cc1ccc(CNc2ccc3c(NS(=O)(=O)c4ccc(Cl)s4)cccc3n2)o1` [Example 58, 5-Chloro-thiophene-2-sulfonic acid {2-[(5-methyl-furan-2-ylmethyl)-amino]-quinolin-5-yl}-amide], the Ki – broadly, the dissociation constant of the complex between target and ligand, obtained from inhibition or displacement – was 7.61 nM.
In the case of `Cc1ccc(CNc2ccc3c(NS(=O)(=O)c4ccc(Cl)nc4)cccc3n2)o1` [Example 59, 6-Chloro-pyridine-3-sulfonic acid {2-[(5-methyl-furan-2-ylmethyl)-amino]-quinolin-5-yl}-amide], the Ki worked out at 19.9 nM.
The value for `Cc1ccc(CNc2ccc3c(NS(=O)(=O)c4cc(F)cc(F)c4)cccc3n2)o1` [Example 60, 3,5-Difluoro-N-{2-[(5-methyl-furan-2-ylmethyl)-amino]-quinolin-5-yl}-benzenesulfonamide] was 21.7 nM; that for `COc1ccccc1CNc1ccc2c(NS(=O)(=O)c3ccc(F)cc3)cccc2n1` [Example 61, 4-Fluoro-N-[2-(2-methoxy-benzylamino)-quinolin-5-yl]-benzenesulfonamide] was 19.2 nM; that for `Cc1ccc(CNc2ccc3c(NS(=O)(=O)c4cccc(F)c4)cccc3n2)o1` [Example 73, 3-Fluoro-N-{2-[(5-methyl-furan-2-ylmethyl)-amino]-quinolin-5-yl}-benzenesulfonamide] was 21.4 nM.
Consider `Cc1ccc(CNc2ccc3c(NS(=O)(=O)c4ccc(F)c(F)c4)cccc3n2)o1` [Example 74, 3,4-Difluoro-N-{2-[(5-methyl-furan-2-ylmethyl)-amino]-quinolin-5-yl}-benzenesulfonamide], for which the Ki came to 12.9 nM.
For `O=S(=O)(Nc1cccc2nc(NCCOc3ccccc3)ccc12)c1cc(F)cc(F)c1` [Example 77, 3,5-Difluoro-N-[2-(2-phenoxy-ethylamino)-quinolin-5-yl]-benzenesulfonamide], the Ki turned out to be 19.1 nM.
The value for `CSc1ccccc1CNc1ccc2c(NS(=O)(=O)c3ccc(F)cc3)cccc2n1` [Example 82, 4-Fluoro-N-[2-(2-methylsulfanyl-benzylamino)-quinolin-5-yl]-benzenesulfonamide] was 33.9 nM; that for `COc1ccccc1CNc1ccc2c(OCC[S+]([O-])c3ccccc3)cccc2n1` (centres unmarked) [Example 83, [5-(2-Benzenesulfinyl-ethoxy)-quinolin-2-yl]-(2-methoxy-benzyl)-amine] was 95.6 nM; that for `COc1ccccc1CNc1ccc2c(OCCS(=O)(=O)c3ccccc3)cccc2n1` [Example 84, [5-(2-Benzenesulfonyl-ethoxy)-quinolin-2-yl]-(2-methoxy-benzyl)-amine] was 88.3 nM.
On to `Cc1ccc(CNc2ccc3c(NS(=O)(=O)c4cc(F)cc(F)c4)cccc3n2)s1` [Example 85, 3,5-Difluoro-N-{2-[(5-methyl-thiophen-2-ylmethyl)-amino]-quinolin-5-yl}-benzenesulfonamide], for which the Ki was 16.7 nM.
With `Cc1ccc(CNc2ccc3c(NCc4c[nH]cn4)cccc3n2)o1` [Example 87, N5-(1H-Imidazol-4-ylmethyl)-N2-(5-methyl-furan-2-ylmethyl)-quinoline-2,5-diamine], the Ki came out at 15.7 nM.
The value for `Cc1ccc(CNc2ccc3c(NCc4cc[nH]n4)cccc3n2)o1` [Example 88, N2-(5-Methyl-furan-2-ylmethyl)-N5-(1H-pyrazol-3-ylmethyl)-quinoline-2,5-diamine] was 32.9 nM; that for `Cc1cc2cccc(Nc3ccc4c(NS(=O)(=O)c5cc(F)cc(F)c5)cccc4n3)c2o1` [Example 89, 3,5-Difluoro-N-[2-(2-methyl-benzofuran-7-ylamino)-quinolin-5-yl]-benzenesulfonamide] was 50.6 nM; that for `Cc1nc(CNc2cccc3nc(NCc4ccc(C)o4)ccc23)c[nH]1` [Example 90, N2-(5-Methyl-furan-2-ylmethyl)-N5-(2-methyl-1H-imidazol-4-ylmethyl)-quinoline-2,5-diamine] was 52.9 nM.
The value for `Cc1ccc(CNc2ccc3c(NCc4cccc5[nH]ccc45)cccc3n2)o1` [Example 91, N5-(1H-Indol-4-ylmethyl)-N2-(5-methyl-furan-2-ylmethyl)-quinoline-2,5-diamine] was 5.25 nM.
The value for `Cc1ccc(CNc2ccc3c(NCc4nc[nH]c4C)cccc3n2)o1` [Example 92, N2-(5-Methyl-furan-2-ylmethyl)-N5-(5-methyl-1H-imidazol-4-ylmethyl)-quinoline-2,5-diamine] was 14.4 nM; that for `Cc1ccc(CNc2ccc3c(Nc4cccc5cc[nH]c45)cccc3n2)o1` [Example 93, N5-(1H-Indol-7-yl)-N2-(5-methyl-furan-2-ylmethyl)-quinoline-2,5-diamine] was 28.2 nM; that for `Cc1ccc(CNc2ccc3c(Nc4cccc5[nH]ccc45)cccc3n2)o1` [Example 94, N5-(1H-Indol-4-yl)-N2-(5-methyl-furan-2-ylmethyl)-quinoline-2,5-diamine] was 10.7 nM.
In the case of `COc1ccccc1CNc1ccc2c(NCc3[nH]cnc3C)cccc2n1` [Example 96, N2-(2-Methoxy-benzyl)-N5-(5-methyl-3H-imidazol-4-ylmethyl)-quinoline-2,5-diamine], the Ki was determined as 19.4 nM.
The value for `COc1ccccc1CNc1ccc2c(NCc3cnc(C)[nH]3)cccc2n1` [Example 97, N2-(2-Methoxy-benzyl)-N5-(2-methyl-3H-imidazol-4-ylmethyl)-quinoline-2,5-diamine] was 31 nM; that for `COc1ccccc1CNc1ccc2c(NCc3cc[nH]n3)cccc2n1` [Example 98, N2-(2-Methoxy-benzyl)-N5-(1H-pyrazol-3-ylmethyl)-quinoline-2,5-diamine] was 33.3 nM; that for `COc1cccc(OC)c1CNc1ccc2c(NCc3cccnc3)cccc2n1` [Example 99, N2-(2,6-Dimethoxy-benzyl)-N5-pyridin-3-ylmethyl-quinoline-2,5-diamine] was 84.6 nM.
The value for `Cc1ccc(CNc2ccc3c(NCc4nccs4)cccc3n2)o1` [Example 100, N2-(5-Methyl-furan-2-ylmethyl)-N5-thiazol-2-ylmethyl-quinoline-2,5-diamine] was 22.7 nM; that for `COc1ccccc1CNc1ccc2c(NCc3cnc[nH]3)cccc2n1` [Example 101, N5-(3H-Imidazol-4-ylmethyl)-N2-(2-methoxy-benzyl)-quinoline-2,5-diamine] was 14.5 nM.
The value for `COc1ccccc1CNc1ccc2c(NCc3cccc4[nH]ccc34)cccc2n1` [Example 102, N5-(1H-Indol-4-ylmethyl)-N2-(2-methoxy-benzyl)-quinoline-2,5-diamine] was 6.41 nM; that for `Cc1ccc(CNc2ccc3c(NCc4cccc5c4OCO5)cccc3n2)o1` [Example 103, N5-Benzo[1,3]dioxol-4-ylmethyl-N2-(5-methyl-furan-2-ylmethyl)-quinoline-2,5-diamine] was 6.57 nM; that for `Cc1ccc(CNc2ccc3c(NCc4ccccc4N4CCN(C)CC4)cccc3n2)o1` [Example 105, N2-(5-Methyl-furan-2-ylmethyl)-N5-[2-(4-methyl-piperazin-1-yl)-benzyl]-quinoline-2,5-diamine] was 24.1 nM.
As to `COc1ccccc1CNc1ccc2c(NCc3c[nH]nn3)cccc2n1` [Example 106, N2-(2-Methoxy-benzyl)-N5-(1H-[1,2,3]triazol-4-ylmethyl)-quinoline-2,5-diamine], the Ki turned out to be 30.4 nM.
